Common to all, as to test: NCI-60 cell line screen, 48 h
For assay [1], the system named is ACHN renal.
Assay [2] has as its system CAKI-1 renal.
Assay [3] has as its system DU-145 prostate.
Assay [4] concerns HS 578T breast.
In assay [5] the test system is KM12 colon.
The test system of assay [6] is OVCAR-3 ovarian.
Assay [7] deals with SF-268 CNS.
Assay [8] relates to SF-539 CNS.
Assay [9] deals with SK-OV-3 ovarian.
In assay [10] the test system is UO-31 renal.

“And” between values parts separate entries of the source, which are not always exact repeats. Equal entries are not always repeated.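 Exposure lasted 48 hours, with cells grown in 96-well plates and compounds tested at five concentrations. GI50: concentration for 50% inhibition of growth. TGI: total growth inhibition.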

Turning to `CC(C)C[C@@H](NC(=O)[C@@H](Cc1ccccc1)NC(=O)c1cnccn1)B1O[C@H]2[C@H](O)[C@@H](C(=O)NCCCC[C@@H]3NC(=O)[C@@H](Cc4ccccc4)NC(=O)[C@H](CC(=O)O)NC(=O)CNC(=O)[C@H](CCCN=C(N)N)NC3=O)O[C@@H](CN)[C@H]2O1`, the GI50 in [1] was 0.00449 µM and 0.005 µM; in [2], 0.00768 µM and 0.0148 µM; in assay [3] it was 0.00662 µM and 0.005 µM; in [4] it was 0.00413 µM and 0.005 µM; in assay [5], 0.0131 µM and 0.0057 µM; in assay [6], 0.00339 µM and 0.005 µM. The GI50 in assay [7] is 0.00877 µM and 0.00535 µM; in assay [8] it was 0.00319 µM and 0.005 µM; in [9] it was 0.0354 µM and 0.0148 µM; in assay [10], 0.00868 µM and 0.005 µM. The TGI in [1] is 0.494 µM and 0.153 µM; in assay [2], 0.0525 µM and 0.0905 µM; in assay [3] it was 5.36 µM; in [5], 0.0437 µM and 0.0177 µM; in [6] it was 0.0106 µM and 0.0104 µM; in [7], 0.0387 µM and 0.0574 µM. In addition, the TGI in assay [8] is 0.015 µM and 0.0123 µM; in [9], 0.296 µM and 0.941 µM; in [10], 0.089 µM and 0.036 µM.
For the compound `CC(O)C1OC(O)C2OC(C)(C)OC12` (centres undefined), the TGI in [1], in [2], in assay [3], in [4], in assay [5] and in assay [6] was above 100 µM throughout. In addition, the TGI in assay [7], in [8], in assay [9] and in assay [10] was above 100 µM in each case.
For the compound `c1ccc(N=C2c3ccccc3CN2c2ccccc2)cc1`, the TGI in assay [1], in [2], in assay [3], in assay [4], in [5] and in assay [6] was above 100 µM throughout. The TGI in [7], in assay [8], in assay [9] and in assay [10] was above 100 µM in each case.
As for `COc1cc(/C=C(/C)[N+](=O)[O-])ccc1O`, the GI50 in assay [1] is 2.38 µM and 1.9 µM; in assay [2], 2.17 µM and 1.38 µM; in assay [3], 2.01 µM and 1.59 µM; in assay [4], 4.67 µM; in assay [5], 2.97 µM and 1.93 µM; in assay [6], 1.96 µM and 1.61 µM. The GI50 in assay [7] was 2.73 µM and 1.92 µM; in assay [8], 2 µM and 1.81 µM; in [9], 8.15 µM and 4.78 µM; in assay [10] it was 1.53 µM and 1.41 µM. Moreover, the TGI is 5.44 µM and 4 µM in assay [1]; 6.07 µM and 3.26 µM in assay [2]; 4.11 µM and 3.26 µM in assay [3]; above 28.4 µM in [4]; 7.52 µM and 3.75 µM in assay [5]; 3.46 µM and 3.17 µM in assay [6]. Also, the TGI is 6.94 µM and 4.51 µM in [7]; 4 µM and 3.68 µM in assay [8]; 20.4 µM and 16.9 µM in assay [9]; 3.19 µM and 3.39 µM in assay [10].
For `O=C(Nc1ccc(S(=O)(=O)Nc2nccs2)cc1)c1cccnc1Nc1cccc(Cl)c1`, the GI50 was 18.1 µM in assay [1]; 17 µM in assay [2]; 15.2 µM in [3]; 19.5 µM in assay [4]; 10.3 µM in assay [5]; 13.1 µM in assay [6]. The GI50 in [7] was 12.8 µM; in [8] it was 16.2 µM; in assay [9] it was 20.8 µM; in assay [10], 13.8 µM. Moreover, the TGI was determined as 96.6 µM in [1]; 52.2 µM in assay [2]; 30.6 µM in assay [3]; 67.5 µM in [4]; 22.9 µM in assay [5]; 27.4 µM in assay [6]. The TGI in assay [7] is 31.5 µM; in assay [8], 44.5 µM; in assay [9], 58.8 µM; in [10], 32.3 µM.
For `Oc1c(CN2CCC(N3CCOCC3)CC2)cc(Cc2cc(CN3CCC(N4CCOCC4)CC3)c(O)c3ncccc23)c2cccnc12`, the GI50 in assay [1] is 0.481 µM; in [2], 0.643 µM; in assay [3], 0.612 µM; in assay [4], 10 µM; in assay [5], 0.428 µM; in [6] it was 0.976 µM. The GI50 is 0.343 µM in assay [7], 1.11 µM in assay [8], 0.758 µM in [9] and 0.366 µM in [10]. In addition, the TGI in assay [1] was 12.9 µM; in assay [2], 21.2 µM; in assay [3] it was above 100 µM; in assay [4], 48 µM; in assay [5], above 100 µM; in [6], 11.9 µM. For the same compound, the TGI in assay [7] was found to be 38.1 µM; in [8], 2.9 µM; in [9], 8.96 µM; in assay [10], 4.48 µM.
Turning to `C=C1C(=O)O[C@@H]2C[C@@H]1CC[C@]1(C)O[C@H]1CC[C@@]1(C)O[C@@H]1CC[C@@]2(C)O`, the GI50 is 25.1 µM in [1]; 27.3 µM in [2]; 35 µM in assay [3]; 22.7 µM in [4]; above 100 µM in [5]; 16.2 µM in assay [6]. For the same compound, the GI50 in assay [7] is above 100 µM; in assay [8] it was 35.1 µM; in assay [9] it was above 100 µM; in [10], 13.7 µM. Further, the TGI in assay [1] was 75.2 µM; in assay [2] it was 79.9 µM; in [3], above 100 µM; in assay [4] it was 67.3 µM; in assay [5] it was above 100 µM; in assay [6], 51.9 µM. Moreover, the TGI was above 100 µM in assay [7], above 100 µM in assay [8], above 100 µM in assay [9] and 45.1 µM in [10].
`COc1ccc(C(=O)Cn2c(C(=O)c3ccc(Cl)cc3)nc3ccccc32)cc1`: the GI50 is 22.9 µM in assay [1]; above 100 µM in assay [2]; above 100 µM in assay [3]; 3.29 µM in [4]; 4.18 µM in assay [5]; above 20.3 µM in assay [6]. Also, the GI50 was above 24.4 µM in [7], 99.3 µM in [8], 23.6 µM in assay [9] and above 51.2 µM in assay [10]. The TGI in assay [1] is above 100 µM; in [2], above 100 µM; in assay [3], above 100 µM; in [4] it was above 23.7 µM; in assay [5], above 100 µM; in [6], above 77.6 µM. The TGI in assay [7], in assay [8], in [9] and in assay [10] was above 100 µM throughout.
